Source: US20100016396A1, “PYRAZOLE COMPOUND” (priority 2007, published 2010)

What follows are compounds tested against T1, PPARγ-RXRα heterodimer (Homo sapiens, UniProt P37231) (assay: PPARγ-RXRα heterodimer ligand activity (luciferase reporter in PPARγ:RXRα:4ERPP/CHO-K1 cells)). Details: luciferase induction ratio, 1 day culture, concentration showing 50% of the maximum induction ratio.
T1 construct: expressed in transfected cells; host or cells: CHO-K1
T1 sequence (P37231 1-505): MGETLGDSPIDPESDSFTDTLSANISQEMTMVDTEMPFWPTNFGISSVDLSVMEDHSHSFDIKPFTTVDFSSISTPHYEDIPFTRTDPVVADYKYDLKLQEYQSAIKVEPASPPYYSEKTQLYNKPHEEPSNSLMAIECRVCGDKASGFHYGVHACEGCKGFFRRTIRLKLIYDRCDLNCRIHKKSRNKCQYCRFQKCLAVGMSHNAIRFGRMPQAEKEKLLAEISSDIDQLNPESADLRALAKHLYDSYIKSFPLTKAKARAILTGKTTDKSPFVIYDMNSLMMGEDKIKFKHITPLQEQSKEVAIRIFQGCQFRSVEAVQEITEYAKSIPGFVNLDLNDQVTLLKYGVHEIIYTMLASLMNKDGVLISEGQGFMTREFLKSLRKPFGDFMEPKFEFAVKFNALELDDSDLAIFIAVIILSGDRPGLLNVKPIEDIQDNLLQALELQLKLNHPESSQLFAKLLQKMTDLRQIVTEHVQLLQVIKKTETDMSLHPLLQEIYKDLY
T1 sequence (P19793 1-462 partner): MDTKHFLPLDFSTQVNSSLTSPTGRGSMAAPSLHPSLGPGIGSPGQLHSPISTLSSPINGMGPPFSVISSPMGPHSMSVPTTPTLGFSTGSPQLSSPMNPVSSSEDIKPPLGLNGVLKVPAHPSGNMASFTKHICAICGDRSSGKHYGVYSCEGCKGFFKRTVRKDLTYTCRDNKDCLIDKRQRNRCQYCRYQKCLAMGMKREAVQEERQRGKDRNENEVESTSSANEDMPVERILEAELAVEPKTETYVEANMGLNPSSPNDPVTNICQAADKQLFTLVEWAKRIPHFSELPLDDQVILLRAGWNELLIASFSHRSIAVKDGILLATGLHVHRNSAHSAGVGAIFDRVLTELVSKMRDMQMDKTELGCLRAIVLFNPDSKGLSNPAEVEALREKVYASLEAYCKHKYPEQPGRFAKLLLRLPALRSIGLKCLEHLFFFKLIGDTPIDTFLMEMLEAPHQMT
Format: cell-based
Protocol: PPARγ:RXRα:4ERPP/CHO-K1 cells described in WO03/099793 were cultured in hamF12 medium [manufactured by Life Technologies, Inc., USA] supplemented with 10% fetal bovine serum [manufactured by Life Technologies, Inc., USA], plated on a 96 well white half area plate [manufactured by Corning Coster Corporation, USA] at 1×10^4 cells/well and cultured overnight in a carbon dioxide gas incubator at 37° C.
The medium was removed from the 96 well white half area plate, 45 μl of hamF12 medium containing 0.1% fatty acid-free bovine serum albumin (BSA) and 5 μl of a test compound were added, and the cells were cultured in a carbon dioxide gas incubator at 37° C. for 1 day. The medium was removed, and 20 μl of PicaGene 7.5 (manufactured by Wako Pure Chemical Industries, Ltd.) diluted 2-fold with HBSS (HANKS' BALANCED SALT SOLUTION) [manufactured by BIO WHITTAKER, USA] was added. After stirring, the luciferase activity was measured using a 1420 ARVO Multilabel Counter [manufactured by Perkin Elmer Inc., USA].
The induction ratio was calculated from the luciferase activity of each test compound relative to the luciferase activity of the test compound non-administration group as 1. The concentration of the test compound and the induction ratio were analyzed using PRISM [manufactured by GraphPad Software, Inc., USA] and EC50 value (concentration of compound showing 50% of the maximum induction ratio) of the test compound was calculated.

SMILES	EC50 [nM]
C[C@H](Oc1cc(Oc2c3ccccc3nn2C)c(Cl)cc1Cl)C(=O)O [Example 30, (2S)-2-{2,4-dichloro-5-[(2-methyl-2H-indazol-3-yl)oxy]phenoxy}propionic acid]	5.8
CCNC(=O)OCCCc1c(C)nn(C)c1Oc1cc(O[C@@H](C)C(=O)O)c(Cl)cc1Cl [Example 298, (2S)-2-(2,4-dichloro-5-{[4-(3-{[(ethylamino)carbonyl]oxy}propyl)-1,3-dimethyl-1H-pyrazol-5-yl]oxy}phenoxy)propionic acid]	17
C=Cc1c(C(F)(F)F)nn(C)c1Oc1cc(O[C@@H](C)C(=O)O)c(Cl)cc1Cl [Example 20, (2S)-2-(2,4-dichloro-5-{[1-methyl-3-(trifluoromethyl)-4-vinyl-1H-pyrazol-5-yl]oxy}phenoxy)propionic acid]	3.7
C[C@H](Oc1cc(Oc2c3c(nn2C)CCCC3)c(Cl)cc1Cl)C(=O)O [Example 31, (2S)-2-{2,4-dichloro-5-[(2-methyl-4,5,6,7-tetrahydro-2H-indazol-3-yl)oxy]phenoxy}propionic acid]	9.3
CCc1c(C(F)(F)F)nn(C)c1Oc1cc(O[C@@H](C)C(=O)O)c(Cl)cc1Cl [Example 76, (2S)-2-(2,4-dichloro-5-{[4-ethyl-1-methyl-3-(trifluoromethyl)-1H-pyrazol-5-yl]oxy}phenoxy)propionic acid]	9.9
CON=Cc1c(C)nn(C)c1Oc1cc(O[C@@H](C)C(=O)O)c(Cl)cc1Cl [Example 123, (2S)-2-[2,4-dichloro-5-({4-[(methoxyimino)methyl]-1,3-dimethyl-1H-pyrazol-5-yl}oxy)phenoxy]propionic acid]	4.1
Cc1nn(C)c(Oc2cc(O[C@@H](C)C(=O)O)c(Cl)cc2Cl)c1C [Example 1, (2S)-2-{2,4-dichloro-5-[(1,3,4-trimethyl-1H-pyrazol-5-yl)oxy]phenoxy}propionic acid]	24
Cc1nn(C)c(Oc2cc(O[C@@H](C)C(=O)O)c(Cl)cc2Cl)c1/C=N/O [Example 104, (2S)-2-[2,4-dichloro-5-({4-[(E)-(hydroxyimino)methyl]-1,3-dimethyl-1H-pyrazol-5-yl}oxy)phenoxy]propionic acid]	25
C=Cc1c(CCC)nn(C)c1Oc1cc(O[C@@H](C)C(=O)O)c(Cl)cc1Cl [Example 41, (2S)-2-{2,4-dichloro-5-[(1-methyl-3-propyl-4-vinyl-1H-pyrazol-5-yl)oxy]phenoxy}propionic acid]	2.4
Cc1nn(C)c(Sc2cc(O[C@@H](C)C(=O)O)c(Cl)cc2Cl)c1C [Example 115, (2S)-2-{2,4-dichloro-5-[(1,3,4-trimethyl-1H-pyrazol-5-yl)thio]phenoxy}propionic acid]	10
Cc1cc(Br)c(O[C@@H](C)C(=O)O)cc1Oc1c(C#N)c(C2CC2)nn1C [Example 256, (2S)-2-{2-bromo-5-[(4-cyano-3-cyclopropyl-1-methyl-1H-pyrazol-5-yl)oxy]-4-methylphenoxy}propionic acid]	22
C=Cc1c(C(C)C)nn(C)c1Oc1cc(O[C@@H](C)C(=O)O)c(Cl)cc1Cl [Example 43, (2S)-2-{2,4-dichloro-5-[(3-isopropyl-1-methyl-4-vinyl-1H-pyrazol-5-yl)oxy]phenoxy}propionic acid]	4.6
Cc1nn(C)c(Sc2cc(O[C@@H](C)C(=O)O)c(Cl)cc2Cl)c1C#N [Example 210, (2S)-2-{2,4-dichloro-5-[(4-cyano-1,3-dimethyl-1H-pyrazol-5-yl)thio]phenoxy}propionic acid]	9.9
C=Cc1c(C)nn(C)c1Oc1cc(O[C@@H](C)C(=O)O)c(Cl)cc1Cl [Example 14, (2S)-2-{2,4-dichloro-5-[(1,3-dimethyl-4-vinyl-1H-pyrazol-5-yl)oxy]phenoxy}propionic acid]	5
Cc1c(C(F)(F)F)nn(C)c1Oc1cc(O[C@@H](C)C(=O)O)c(Cl)cc1Cl [Example 74, (2S)-2-(2,4-dichloro-5-{[1,4-dimethyl-3-(trifluoromethyl)-1H-pyrazol-5-yl]oxy}phenoxy)propionic acid]	13
CCC/C=C/c1c(C)nn(C)c1Oc1cc(O[C@@H](C)C(=O)O)c(Cl)cc1Cl [Example 89, (2S)-2-[2,4-dichloro-5-({1,3-dimethyl-4-[(1E)-1-penten-1-yl]-1H-pyrazol-5-yl}oxy)phenoxy]propionic acid]	2
Cc1nn(C)c(Oc2cc(O[C@@H](C)C(=O)O)c(Cl)cc2Cl)c1C=NOCc1ccccc1 [Example 125, (2S)-2-{5-[(4-{[(benzyloxy)imino]methyl}-1,3-dimethyl-1H-pyrazol-5-yl)oxy]-2,4-dichlorophenoxy}propionic acid]	3.1
Cc1nn(C)c(Oc2cc(O[C@@H](C)C(=O)O)c(Cl)cc2Cl)c1C#N [Example 106, (2S)-2-{2,4-dichloro-5-[(4-cyano-1,3-dimethyl-1H-pyrazol-5-yl)oxy]phenoxy}propionic acid]	120
